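Each compound was tested at five concentrations against cells in 96-well plates for 48 hours. TGI denotes the concentration required for complete inhibition of growth.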
Legend:
Experiment in all cases: NCI anticancer screen, dose series, 48 h
[1] = test system: MOLT-4 leukemia
[2] = test system: KM12 colon
[3] = test system: DMS 114 small cell lung
[4] = test system: SN12C renal
[5] = test system: SK-MEL-28 melanoma
[6] = test system: RXF 393 renal
[7] = test system: RXF-631 renal
[8] = test system: NCI-H226 lung
[9] = test system: RPMI-8226 leukemia
[10] = test system: SF-539 CNS
[11] = test system: HCC-2998 colon
[12] = test system: DMS 273 small cell lung
[13] = test system: NCI-H23 lung
[14] = test system: HCT-116 colon
[15] = test system: UACC-62 melanoma
[16] = test system: SR leukemia
[17] = test system: K-562 leukemia
[18] = test system: SK-OV-3 ovarian
[19] = test system: MALME-3M melanoma
[20] = test system: M14 melanoma
[21] = test system: LOX IMVI melanoma
[22] = test system: ACHN renal
[23] = test system: CCRF-CEM leukemia
[24] = test system: TK-10 renal
[25] = test system: HT29 colon
[26] = test system: LXFL 529 NSCLC
[27] = test system: SNB-78 CNS
[28] = test system: HOP-62 NSCLC
[29] = test system: DLD-1 colon
[30] = test system: SW-620 colon
[31] = test system: UACC-257 melanoma
[32] = test system: SF-295 CNS
[33] = test system: COLO 205 colon
[34] = test system: M19-MEL melanoma
[35] = test system: IGROV1 ovarian
[36] = test system: NCI-H522 lung
[37] = test system: SF-268 CNS
[38] = test system: OVCAR-3 ovarian
[39] = test system: HCT-15 colon
[40] = test system: HL-60(TB) leukemia
[41] = test system: SNB-75 CNS
[42] = test system: HOP-92 NSCLC
[43] = test system: OVCAR-4 ovarian
[44] = test system: NCI-H460 lung
[45] = test system: SK-MEL-5 melanoma
[46] = test system: OVCAR-5 ovarian
[47] = test system: UO-31 renal
[48] = test system: A549 NSCLC
[49] = test system: SNB-19 CNS
[50] = test system: 786-0 renal
[51] = test system: CAKI-1 renal
[52] = test system: OVCAR-8 ovarian
[53] = test system: U251 CNS
[54] = test system: KM20L2 colon
[55] = test system: EKVX NSCLC
[56] = test system: SK-MEL-2 melanoma
[57] = test system: HOP-18 NSCLC
[58] = test system: A498 renal

CC1(C)CCCC2(C)[C@@H]1CC[C@@]13CC(=O)[C@@](C)(CC[C@@H]21)C3 (some centres undefined)
TGI [1]: > 100 µM
TGI [2]: > 100 µM
TGI [3]: > 100 µM
TGI [4]: > 100 µM
TGI [5]: > 100 µM
TGI [6]: 62.8 µM
TGI [7]: > 100 µM
TGI [8]: > 100 µM
TGI [9]: > 100 µM
TGI [10]: > 100 µM
TGI [11]: > 100 µM
TGI [12]: > 100 µM
TGI [13]: > 100 µM
TGI [14]: > 100 µM
TGI [15]: > 100 µM
TGI [16]: > 100 µM
TGI [17]: > 100 µM
TGI [18]: > 100 µM
TGI [19]: > 100 µM
TGI [20]: > 100 µM
TGI [21]: > 100 µM
TGI [22]: > 100 µM
TGI [23]: > 100 µM
TGI [24]: > 100 µM
TGI [25]: 76.3 µM
TGI [26]: > 100 µM
TGI [27]: > 100 µM
TGI [28]: > 100 µM
TGI [29]: > 100 µM
TGI [30]: > 100 µM
TGI [31]: 97.3 µM
TGI [32]: > 100 µM
TGI [33]: > 100 µM
TGI [34]: 89.6 µM
TGI [35]: > 100 µM
TGI [36]: 82.5 µM
TGI [37]: > 100 µM
TGI [38]: > 100 µM
TGI [39]: > 100 µM
TGI [40]: > 100 µM
TGI [41]: > 100 µM
TGI [42]: > 100 µM
TGI [43]: > 100 µM
TGI [44]: > 100 µM
TGI [45]: > 100 µM
TGI [46]: > 100 µM
TGI [47]: > 100 µM
TGI [48]: > 100 µM
TGI [49]: > 100 µM
TGI [50]: > 100 µM
TGI [51]: > 100 µM
TGI [52]: > 100 µM
TGI [53]: > 100 µM
TGI [54]: > 100 µM

COc1cc([C@@H]2c3cc4c(cc3[C@@H](NC(=O)c3cccc(C#N)c3)C3COC(=O)[C@@H]32)OCO4)cc(OC)c1O (some centres undefined)
TGI [1]: 33 µM
TGI [2]: 5.21 µM
TGI [4]: 1.81 µM
TGI [5]: > 100 µM
TGI [6]: 45.5 µM
TGI [7]: 14.6 µM
TGI [8]: 0.67 µM
TGI [9]: 29.4 µM
TGI [10]: 1.56 µM
TGI [55]: 7.49 µM
TGI [11]: 6.34 µM
TGI [12]: 13.8 µM
TGI [13]: 0.811 µM
TGI [14]: 12.7 µM
TGI [15]: 2.95 µM
TGI [17]: > 100 µM
TGI [19]: 5.18 µM
TGI [20]: > 100 µM
TGI [21]: 10.5 µM
TGI [56]: 8.83 µM
TGI [22]: 1.98 µM
TGI [23]: > 100 µM
TGI [24]: 7.86 µM
TGI [25]: 11.5 µM
TGI [26]: > 100 µM
TGI [27]: > 100 µM
TGI [29]: 16.8 µM
TGI [30]: 17.8 µM
TGI [31]: > 100 µM
TGI [33]: > 100 µM
TGI [35]: 6.54 µM
TGI [36]: 3.16 µM
TGI [37]: > 100 µM
TGI [57]: > 100 µM
TGI [38]: 8.74 µM
TGI [39]: 24.5 µM
TGI [40]: 12.3 µM
TGI [41]: 4.85 µM
TGI [58]: 4.98 µM
TGI [42]: 9.89 µM
TGI [43]: > 100 µM
TGI [44]: 2.53 µM
TGI [45]: 13.6 µM
TGI [46]: 25.5 µM
TGI [47]: 19.2 µM
TGI [48]: 2.51 µM
TGI [49]: 8.62 µM
TGI [50]: > 100 µM
TGI [51]: 16.3 µM
TGI [52]: 14.6 µM
TGI [53]: 1.81 µM
TGI [54]: 7.53 µM

O=C(Nc1nc(=S)[nH][nH]1)C(=O)C1C(=O)Nc2ccccc2S1=O (centres undefined)
TGI [1]: > 100 µM
TGI [2]: > 100 µM
TGI [3]: > 100 µM
TGI [4]: > 100 µM
TGI [5]: > 100 µM
TGI [7]: > 100 µM
TGI [10]: > 100 µM
TGI [55]: > 100 µM
TGI [11]: > 100 µM
TGI [12]: > 100 µM
TGI [13]: > 100 µM
TGI [14]: > 100 µM
TGI [15]: > 100 µM
TGI [16]: > 100 µM
TGI [18]: > 100 µM
TGI [19]: > 100 µM
TGI [20]: > 100 µM
TGI [21]: > 100 µM
TGI [22]: > 100 µM
TGI [23]: > 100 µM
TGI [24]: > 100 µM
TGI [25]: > 100 µM
TGI [26]: > 100 µM
TGI [28]: > 100 µM
TGI [30]: > 100 µM
TGI [31]: > 100 µM
TGI [32]: > 100 µM
TGI [33]: > 100 µM
TGI [34]: > 100 µM
TGI [35]: > 100 µM
TGI [36]: > 100 µM
TGI [37]: > 100 µM
TGI [57]: > 100 µM
TGI [38]: > 100 µM
TGI [39]: > 100 µM
TGI [40]: > 100 µM
TGI [41]: > 100 µM
TGI [42]: > 100 µM
TGI [43]: > 100 µM
TGI [44]: > 100 µM
TGI [45]: > 100 µM
TGI [47]: > 100 µM
TGI [48]: > 100 µM
TGI [49]: > 100 µM
TGI [50]: > 100 µM
TGI [51]: > 100 µM
TGI [52]: > 100 µM
TGI [54]: > 100 µM

From PubChem BioAssay (NCI)
